Reference: patent US20250099491A1, “PREVENTION OR TREATMENT OF CARDIOVASCULAR DISEASES WITH HIGH PENETRATION PRODRUGS OF ASPIRIN AND OTHER NSAIDS” (Techfields Inc., priority 2022, published 2025)

Assays:
[1] = test system: middle cerebral artery (MCA) thrombosis model of monkeys; experiment: Example 19: middle cerebral artery (MCA) thrombosis model of monkeys; conditions: for infarct volume: Day 28 after MCA thrombosis
Experimental: Aspirin was administered orally by gavage using a nasal catheter with a disposal syringe. The catheter was inserted into the stomach through the mouth. The treatment was once per day of MCA thrombosis (day 0), twice per day for 27 days.
The monkeys that had been fastened for at least 12 h were anesthetized with intramuscular administration of ketamine hydrochloride (20 mg/kg), and placed on an operation-bed. Anesthesia was continued with 1.0% isoflurane in O2 gas until 30 min. The inhalation anesthesia was performed with anesthesia machines (SN23402, Hallowell engineering and manufacturing corporation, USA) and respirators (SN23402, Hallowell engineering and manufacturing corporation, USA), and placed on an operation-bed. During anesthesia, body temperature of the animals (rectal temperature) was controlled between 37.0±0.5° C. by heating mattresses (XMTA-7000, Delixi Electric., Ltd.).
Under anesthesia, the left eye was enucleated using a bipolar coagulation device (Valleylab Force 1C, USA). A craniotomy was then performed supralaterally to the left side of the optic nerve. The next day animals were anesthetized with ketamine hydrochloride (20 mg/kg) and the dura and subarachnoid membrane were opened. MCA thrombosis was induced by photochemical reaction. The proximal part of the main MCA trunk. was irradiated with green light wave length 532 nm achieved by use of a xenon lamp (GL532T3-100FC, Shanghai Laser& Optics Century Col., Ltd.). The irradiation was directed by a 3-mm diameteroptic fiber mounted on a micromanipulator. Irradiation was started and rose bengal 20 mg/kg was injected intravenously. Photoirradiation was continued for a 30 min. The dura was then covered with a moist gelatin sponge.
Neurological deficits (see Table 3) were assessed 1, 3, 5, 7, 14 and 28 days after the onset of MCA thrombosis (day 0) in a blind manner. The neurological deficits was scored on consciousness, sensory system, motor system and skeletal muscle coordination, and the total neurological deficit score was calculated by summing the scores of consciousness, sensory system, motor system and skeletal muscle coordination.
The survival monkeys were deeply anesthetized with pentobarbital sodium (35 mg/kg, i.v.) 28 days after the onset of MCA thrombosis. After cutting the atriums of heart, 200 mL of heparinized physiological saline (10 U/mL) was allowed to perfuse the brain via the common carotid arteries, and followed by perfusion of 200 mL of 10% formalin neutral buffer solution. The whole brain was removed, and then was put in pathology sample preservation packs containing 10% formalin neutral buffer solution. For each brain sample, the coronal sections (thickness: 7-8 μm) per site were prepared at 10 sites at 4-mm intervals. Slices per site were each stained with H & E reagent.
Measurement of cerebral infarct lesions was carried out in a blind manner. The infarct lesions in the ischemic side are defined as a necrotic portion compared with that in the contralateral side. The infarcted area of left cerebral hemisphere (A) in the cross-sections was traced and measured using a computerized image analysis system (image J).
When the infarct size of 2 serial section was made into D and D′, the infarcted volume using the thickness (4 mm) of a section is measured in the following formula:
Total infarcted volume is calculated by summing the infarcted volume of the 10 serial sections.

[2] = test system: rats with acute ischemia induced by Middle Cerebral Artery Occlusion (MCAO); experiment: Example 14: acute ischemia induced by middle cerebral artery occlusion (MCAO) in rats; type: in vivo, rat; conditions: for mortalities: deaths of animals in group; for infarct volume: Day 14 after MCAO, TTC staining, mean±SEM
[3] = following topical spray
Experimental: Each cohort began with single dose administration of study drug on Day 1 of the cohort's study schedule.
For single dose PK analysis, serial blood samples were collected following the Day 1 dose at the following time points: 0 (pre-dose), 0.25, 0.5, 0.75, 1, 1.5, 2, 2.5, 3, 4, 5, 6, 8, 10, 12, 18, 24, 48, 72, 96 and 120 hours post-dose. For multiple-dose PK analysis, serial blood samples were collected following the last morning dose on Day 12 according to the same schedule used for the single-dose PK analysis. In addition, daily trough PK samples were collected prior to the morning dose on Days 7 through 11.

[4] = test system: myocardial infarction in minipigs; experiment: Example 20: myocardial infarction efficacy study in minipigs (circumflex coronary artery thrombosis); type: in vivo, minipig; conditions: twice a day; for infarct volume (myocardial): 28 days after MCA thrombosis
Experimental: Total 24 male minipigs were used for this study. […] The minipigs were already quarantined and acclimated. Before animal being transferred from holding colony, a physical examination was performed and the acceptability of the animals for the study was evaluated by veterinary. […] [table] […] Under anesthesia, thoracotomy was carried out and the circumflex coronary artery of the heart was exposed. The circumflex coronary artery thrombosis was induced by photochemical reaction. […] Photoirradiation was continued for a 30 min. […] After cutting the femoral artery, thoracotomy was carried out and the heart was removed. […] TTC regent for 5 min. After staining with TTC reagent, the photograph of the heart 5 blocks was taken. All blocks were immersed in 10% formalin neutral buffer solution. The 2nd block appeared large necrotic area was cut sections (thickness: 7-8 μm). Slice was stained with H & E reagent. […] The infarct lesions were defined as a necrotic portion of TTC stained blocks. […] The histopathological alteration (necrosis, inflammation, granulation, etc.) of myocardial infarction was examined using H & E stained slides.

[5] = high dose 30 mg/kg/time transdermal, twice a day
[6] = low dose 15 mg/kg/time transdermal, twice a day
[7] = high dose 30 mg/kg/time transdermal
[8] = low dose 15 mg/kg/time transdermal

SMILES: CCN(CC)CCOC(=O)c1ccccc1OC(C)=O.Cl [Compound-1]
- infarct volume [1, 5]: 988 mm^3
- infarct volume [1, 6]: 945 mm^3
- Mortality rate [1, 5]: 0/7
- gemistocytic astrocytes in the penumbra area [1, 5]: many gemistocytic astrocytes
- liquefaction in the infarct area (histopathology) [1, 5]: slight
- Mortality rate [1, 6]: 0/5
- liquefaction in the infarct area (histopathology) [1, 6]: moderate
- neurologic deficits ([1]; low dose (15 mg/kg) and high dose (30 mg/kg) groups, transdermal twice a day): dose-dependently improved
- delayed neuronal death in the distant area ([1]; transdermal treatment groups): slightly
- mortalities ([2]; high dose 60 mg/kg topical bid): 0 of 25
- infarct volume ([2]; low dose 15 mg/kg topical bid 14 days): 32.07%±2.061
- neuroprotective effect on brain ischemic injury ([2]; low, middle and high dose groups compared to vehicle group): good neuroprotective effect
- neurological deficit scores ([2]; low, middle and high dose groups vs vehicle group): show differences significantly
- body weight ([2]; low, middle and high dose groups, Day 5-14, vs vehicle group by t-test): increased
- infarct volume ([2]; middle dose 30 mg/kg topical bid 14 days): 27.11%±1.658
- mortalities ([2]; middle dose 30 mg/kg topical bid): 0 of 25
- converted to salicylic acid [3]: ≥ 99%
- degeneration of myocardium and myocardial necrosis (histopathology) [4, 7]: slight
- infarct volume (myocardial) [4, 7]: 138 mm^3
- degeneration of myocardium and myocardial necrosis (histopathology) [4, 8]: slight
- infarct volume (myocardial) [4, 8]: 177 mm^3
